Assay: Entrapment efficiency of small molecules in L-His crystals (HPLC of supernatant)
Format: physicochemical
Settings: within L-His crystals; determined by HPLC
Procedure: A 30 mg/mL solution of L-His (>99%, Sigma-Aldrich) was prepared by dissolving L-His powder in milli-Q water using a vortex mixer at ambient temperature in a Corning® 15 mL centrifuge tube with a closed cap. Then 500 μL of the aqueous solution of L-His and 500 μL of 200 proof ethanol (KOPTEC, PA, US) was added to 200 μL of the small molecule solution (2 mg/mL). The small molecules used in this study were Nile red (>98%, Sigma-Aldrich), pyrene (>98%, Sigma-Aldrich), β-carotene (>97%, Sigma-Aldrich), and doxorubicin HCl (DOX, >98%, Fluka, Mexico City, Mexico). The solution was vortexed for 15 seconds and kept static at ambient temperature. After 3 hours, crystals were collected and washed with ethanol to remove the free small molecules from the surface of the crystals and the supernatant was collected to measure the concentration of non-entrapped small molecules using HPLC. […] Each individual sample of small molecules was quantified based on an optimized method reported in the literature for β-carotene (Etzbach et al., “Characterization of Carotenoid Profiles in Goldenberry (Physalis peruviana L.) Fruits at Various Ripening Stages and in Different Plant Tissues by HPLC-DAD-APCI-MS^n,” Food Chem. 245:508-517 (2018), which is hereby incorporated by reference in its entirety), Nile red (Wu et al., “Drug Delivery to the Skin from Sub-Micron Polymeric Particle Formulations: Influence of Particle Size and Polymer Hydrophobicity,” Pharm Res. 26(8):1995-2001 (2009), which is hereby incorporated by reference in its entirety), pyrene (Jia et al., “Effect of Root Exudates on the Mobility of Pyrene in Mangrove Sediment-Water System,” Catena 162:396-401 (2017), which is hereby incorporated by reference in its entirety), and DOX (Chi et al., “Redox-Sensitive and Hyaluronic Acid Functionalized Liposomes for Cytoplasmic Drug Delivery to Osteosarcoma in Animal Models,” J. Control Release 261:113-125 (2017), which is hereby incorporated by reference in its entirety). […]

SMILES	Entrapment efficiency [%]
CC1=C(/C=C/C(C)=C/C=C/C(C)=C/C=C/C=C(C)/C=C/C=C(C)/C=C/C2=C(C)CCCC2(C)C)C(C)(C)CCC1 [β-carotene]	~96
c1cc2ccc3cccc4ccc(c1)c2c34 [pyrene]	87
CCN(CC)c1ccc2nc3c4ccccc4c(=O)cc-3oc2c1 [Nile red]	62
